Reference: the supplement of paper PMC10307832

How the values were obtained:
Experiment in all cases: relative viability (nuclei count vs DMSO), 5 days (fraction); higher = more cells survive
17-AAG + Pictilisib = compound: C=CCNC1=C2C[C@@H](C)C[C@H](OC)[C@H](O)[C@@H](C)/C=C(\C)[C@H](OC(N)=O)[C@@H](OC)/C=C\C=C(/C)C(=O)NC(=CC1=O)C2=O [17-AAG] + CS(=O)(=O)N1CCN(Cc2cc3nc(-c4cccc5[nH]ncc45)nc(N4CCOCC4)c3s2)CC1 [Pictilisib] (partner 1 µM)
Outline: (§1)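 Dosing by pin tool came one day after lung cancer cell lines were seeded in 1536-well plates, using either one drug or a fixed anchor-drug dose plus five library-drug doses (not always all listed) in √10 steps. After 5 days, nuclei were counted on 4× images. Relative viability is treated-well nuclei count divided by vehicle-well nuclei count, and values are medians of duplicate plates.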

17-AAG + Linsitinib = compound: C=CCNC1=C2C[C@@H](C)C[C@H](OC)[C@H](O)[C@@H](C)/C=C(\C)[C@H](OC(N)=O)[C@@H](OC)/C=C\C=C(/C)C(=O)NC(=CC1=O)C2=O [17-AAG] + C[C@]1(O)C[C@@H](c2nc(-c3ccc4ccc(-c5ccccc5)nc4c3)c3c(N)nccn32)C1 [Linsitinib] (partner 1 µM)
Outline: as §1

17-AAG + Alpelisib = compound: C=CCNC1=C2C[C@@H](C)C[C@H](OC)[C@H](O)[C@@H](C)/C=C(\C)[C@H](OC(N)=O)[C@@H](OC)/C=C\C=C(/C)C(=O)NC(=CC1=O)C2=O [17-AAG] + Cc1nc(NC(=O)N2CCC[C@H]2C(N)=O)sc1-c1ccnc(C(C)(C)C(F)(F)F)c1 [Alpelisib] (partner 2 µM)
Outline: as §1

17-AAG + Decitabine = compound: C=CCNC1=C2C[C@@H](C)C[C@H](OC)[C@H](O)[C@@H](C)/C=C(\C)[C@H](OC(N)=O)[C@@H](OC)/C=C\C=C(/C)C(=O)NC(=CC1=O)C2=O [17-AAG] + Nc1ncn([C@H]2C[C@H](O)[C@@H](CO)O2)c(=O)n1 [Decitabine] (partner 2 µM)
Outline: as §1

Cell Line	relative viability (17-AAG + Pictilisib; first compound 0.00128 µM)	relative viability (17-AAG + Pictilisib; first compound 0.004048 µM)	relative viability (17-AAG + Pictilisib; first compound 0.0128 µM)	relative viability (17-AAG + Pictilisib; first compound 0.04048 µM)	relative viability (17-AAG + Pictilisib; first compound 0.128 µM)	relative viability (17-AAG + Linsitinib; first compound 0.00128 µM)	relative viability (17-AAG + Linsitinib; first compound 0.004048 µM)	relative viability (17-AAG + Linsitinib; first compound 0.0128 µM)	relative viability (17-AAG + Linsitinib; first compound 0.04048 µM)	relative viability (17-AAG + Linsitinib; first compound 0.128 µM)	relative viability (17-AAG + Alpelisib; first compound 0.00128 µM)	relative viability (17-AAG + Alpelisib; first compound 0.004048 µM)	relative viability (17-AAG + Alpelisib; first compound 0.0128 µM)	relative viability (17-AAG + Alpelisib; first compound 0.04048 µM)	relative viability (17-AAG + Alpelisib; first compound 0.128 µM)	relative viability (17-AAG + Decitabine; first compound 0.00128 µM)	relative viability (17-AAG + Decitabine; first compound 0.004048 µM)	relative viability (17-AAG + Decitabine; first compound 0.0128 µM)	relative viability (17-AAG + Decitabine; first compound 0.04048 µM)	relative viability (17-AAG + Decitabine; first compound 0.128 µM)
NCI-H460	0.404	0.462	0.193	0.0668	0.0737	0.771	0.0998	0.0141	0.0124	0.009	0.544	0.214	0.0127	0.0124	0.0122	0.333	0.321	0.0276	0.0244	0.0254
NCI-H661	0.39	0.534	0.363	0.259	0.275	0.558	0.569	0.516	0.45	0.259	0.573	1	0.728	0.347	0.188	0.496	0.552	0.473	0.341	0.257
SK-MES-1	0.414	0.387	0.139	0.134	0.1	1	1.01	0.598	0.282	0.165	0.884	0.842	0.553	0.144	0.152	0.405	0.362	0.197	0.145	0.141
NCI-H1792	0.326	0.308	0.253	0.171	0.143	0.481	0.619	0.449	0.391	0.372	0.713	0.64	0.594	0.441	0.306	0.444	0.345	0.194	0.12	0.0575
NCI-H1355	0.512	0.439	0.264	0.183	0.151	0.946	0.747	0.776	0.725	0.286	0.867	0.86	0.884	0.86	0.327	0.35	0.345	0.361	0.246	0.183
UMC-11	0.824	0.809	0.662	0.219	0.143	0.967	0.943	0.751	0.299	0.178	1.05	0.855	0.658	0.211	0.129	0.484	0.658	0.536	0.523	0.255
A549	0.543	0.114	0.0532	0.0751	0.0642	0.646	0.487	0.371	0.105	0.0473	0.777	0.189	0.0463	0.056	0.0402	0.123	0.271	0.128	0.0399	0.0274
NCI-H2405	0.521	0.248	0.175	0.179	0.164	1.02	0.737	0.262	0.219	0.194	0.942	0.695	0.221	0.233	0.16	0.714	0.675	0.424	0.242	0.189
LCLC-97TM1	0.263	0.228	0.211	0.13	0.104	0.192	0.198	0.211	0.269	0.182	0.204	0.294	0.235	0.26	0.161	0.197	0.21	0.255	0.259	0.185
EMC-BAC-2	0.605	0.598	0.586	0.274	0.202	0.875	0.772	0.837	0.803	0.265	0.836	0.761	0.754	0.813	0.381	0.98	0.939	0.692	0.31	0.219
NCI-H1975	0.3	0.176	0.116	0.119	0.103	1.03	0.725	0.31	0.164	0.139	0.583	0.365	0.147	0.139	0.124	0.378	0.396	0.266	0.175	0.14
BEN	0.569	0.72	0.656	0.346	0.183	0.971	0.947	0.911	0.89	0.276	1.02	0.978	1.04	0.84	0.257	0.613	0.712	0.759	0.446	0.288
NCI-H23	0.468	0.517	0.224	0.179	0.145	0.554	0.511	0.486	0.174	0.157	0.717	0.472	0.434	0.2	0.148	0.294	0.226	0.251	0.185	0.16
NCI-H596	0.363	0.304	0.417	0.42	0.253	1.12	0.93	0.943	0.82	0.783	0.479	0.648	0.564	0.454	0.358	1.05	0.988	0.899	0.891	0.502
EPLC-272H	0.291	0.32	0.291	0.169	0.168	1.37	1.12	1.21	0.928	0.324	1.01	0.934	0.848	0.756	0.266	0.367	0.352	0.307	0.158	0.0907
LCLC-103H	0.58	0.583	0.669	0.73	0.712	1.15	1.12	1.13	0.965	0.992	1.05	0.974	0.998	0.996	1.11	0.757	0.715	0.731	0.812	0.797
